Results as given in US6248718A, “Lesion-directed dry dosage forms of antibacterial agents for the treatment of acute mucosal infections of the oral cavity” (priority 1999, dated 2001).
Converted amounts (≈) assume the structure as drawn.

How the values were obtained:
[1] = Topical treatment of patients with aphthous ulcers with troches; type: in vivo, human
Method: Patients with aphthous ulcers were advised to brush their teeth to rid them of food residues, and to rinse their mouths with water prior to initiating treatment. One penicillin/magnesium stearate troche was placed in the patients mouths directly over the ulcerated lesion. The troche was dissolved or disintegrated in a minimum amount of saliva directly over the ulcer in no more than 15 minutes, preferably in about 8 to about 12 minutes. The patients were advised to keep the ingredients of the disintegrated troche at the site of the lesion as long as possible. Food and beverages were avoided for one hour after each treatment. If multiple aphthous ulcers were present, only one troche is required for the treatment of a cluster of small ulcers. The topical treatments were conducted 4 times daily, for example, after breakfast, after lunch, after dinner and before bed time for no more than 4 days. […] The burning sensation lessened with subsequent applications.
For instance, the first sign of healing is usually the fading of the hyperemic zone at the periphery of the ulcer and the lessening of edema at the base of the ulcer. The membrane covering the ulcer becomes thinner, more translucent, more pearly white instead of a grayish-yellowish white prior to the application and contract with the troche. […]

[2] = Local concentration of penicillin in saliva after a troche containing 50 mg penicillin G; type: in vivo, human
Method: The local concentration of penicillin in the saliva was determined as follows. […] This loculated pocket of saliva was not swallowed and was not to be diluted with excess saliva from other parts of the mouth for one hour. Two samples were taken for assay to determine the peak and trough local concentrations of penicillin during the one-hour duration of medicinal treatment. At the time when the troche was completely dissolved and one hour later, aliquots of 10 microliters were pipetted from this pocket of saliva solution at the site of medication, representing the peak level and the trough level of antibiotic concentration, and transferred into 10 ml of distilled water to make a 1:1.000 dilution and into 1 ml of distilled water to make a 1:100 dilution, respectively. The diluted saliva antibiotic solutions were passed through a sterile bacteria-filter to remove any bacterial or fungal contaminants of the oral flora.
For determination of the peak concentration, 1 ml of the bacteria-free filtrate was further diluted with 9 ml of nutrient broth to achieve a 1:10,000 dilution of the saliva. Then a serial two-fold dilution was made of this 1:10,000 diluted saliva sample with an equal volume of nutrient broth in a roll of test tubes to obtain a series of 1 ml aliquots of nutrient broth in which the saliva was diluted to 20,000, 40,000, 80,000, 160,000, 320,000, 640,000, 1,280,000 and 2,560,000 folds respectively. […] Thus the final dilutions of the saliva sample were in the range of 40,000 to 5,120,000 folds.
For determining the trough concentration, the entire 1 ml of the 1:100 diluted saliva filtrate was used to make the serial dilutions so that the final dilutions of saliva sample were in the range of 4,000 to 256,000 folds in the final test culture.
As control standards, a series of test tubes containing 1 ml of nutrient broth with varying concentrations of penicillin G potassium salt ranging from 0.1 units to 10 units/ml were similarly mixed with an equal volume of nutrient broth freshly inoculated with the standard tubes of Staphylococcus aureus. Both the test and control standard tubes were incubated at 37° C. for 18 hours. Among the test tubes showing no gross evidence of bacterial growth, the one containing the highest dilution of saliva and the one containing the least amount of penicillin G were considered as having the identical concentration of penicillin, i.e. the MIC of the staphylococcus aureus.

[3] = tested on: Staphylococcus aureus ATCC 29213; assay: MIC for standard strain used in saliva antibiotic assay (Examples VII-IX); type: cell-based; details: nutrient broth, 37° C., 18 hours
Method: Each filtered mixture in test tube was inoculated with 0.1 ml of a 1:1,000 dilution of a 12 hour broth culture of Staphylococcus aureus ATCC 29213.
A row of 6 test tubes each containing 2 ml of nutrient broth with decreasing concentrations of penicillin G potassium from 6.2 to 0.16 mcg/ml, using a serial double dilution method described in a., was prepared and similarly inoculated with 0.1 ml broth culture of Staphylococcus aureus ATCC 29213 as the standard.
All test tubes were incubated at 37° C. for 18 hours and observed for bacterial growth against an inoculated broth containing neither antibiotic nor saliva samples.
In this study, the drug powder was suspended in one teaspoonful of water and swallowed by the test subjects two hours after breakfast, followed by drinking an 8 Oz. glass of water. The test subjects refrained from drinking or eating for the next three hours. Six samples of saliva were collected from each subject at 30-minute intervals in succession in the next three hours. An aliquot of 0.2 ml from each saliva sample was transferred to 3.8 ml of nutrient broth. The mixture of the latter was forced to pass a bacterial filter. Two (2) ml of the bacteria-free filtrate was pipetted out into a sterile test tube and inoculated with 0.1 ml of a 1:1,000 dilution of a 12 hours broth culture of Staphylococcus aureus ATCC 29213 and incubated at 37° C. for 18 hours. […]

bacteria in human saliva = assay: Inhibition of bacterial growth in human saliva in vitro (Example IV); type: cell-based
Method: For this study, five healthy adult volunteers, three men and two women, were asked to refrain from drinking and eating for two hours after breakfast. At the end of two hours, about five (5) ml of saliva was obtained from the oral cavity of each volunteer. Aliquots of 0.1 ml of saliva were pipetted immediately from each saliva sample and spread over the surface of two 5% sheep blood agar plates with a sterile plastic loop. One inoculated blood agar plate was incubated in an aerobic atmosphere containing 5% CO2, and the other anaerobically at 37° C. for 18 hours, as untreated controls.
Aliquots of 0.2 ml of the saliva from each volunteer's sample were pipetted into sterile test tubes, and labeled from No. 2 to No. 13. Five equal doses of dry powder of the USP grade penicillin G potassium salt, 200 mg each, were weighed and put into five sterile test tubes, all labeled No. 1. The dry powder of antibiotic was dissolved in 0.4 ml saliva obtained from each of the five volunteers to constitute an initial concentration of antibiotic concentration of […] in saliva. An aliquot of 0.2 ml of the saliva antibiotic solution was pipetted from tube No. 1 into tube No. 2. After having been thoroughly mixed, 0.2 ml of the content in tube No. 2 was pipetted to tube No. 3, and so forth continuously in succession to make a serial double dilution of penicillin G potassium solutions in saliva through tube No. 13. Finally, the test tubes contained different concentrations of penicillin G potassium in the saliva of five volunteers, as follows.
The mixtures of antibiotic and saliva in the test tubes were incubated at 37° C. One hour later, an aliquot of 0.1 ml was pipetted from the content of each tube, first dropped in the center of a blood agar plate and then spread to the periphery of the plate surface. The plates were incubated aerobically at 37° C. with 5% carbon dioxide in the atmosphere for 18 hours and were examined for bacterial growth.

[4] = tested on: Staphylococcus aureus (ATCC 29213); details: standard strain; cited from earlier work
[5] = earlier treatments of oral infections / aphthous ulcers; cited from earlier work
[6] = tested on: Staphylococcus aureus (ATCC 29213); assay: MIC for standard strain used in saliva antibiotic assay (Examples I, II); type: cell-based; details: nutrient broth, 37° C., 18 hours
From the text: The final concentrations of oxytetracycline in the control standard nutrient broth were 0.25 mcg/ml, 0.5 mcg/ml, 1.0 mcg/ml, 2.0 mcg/ml, 4.0 mcg/ml, and 8.0 mcg/ml. The final dilutions of saliva sample were 1/50,000, 1/100,000, 1/200,000, 1/400,000, 1/800,000 and 1/1,600,000 for the peak concentration test tubes and 1/4,000. 1/8,000, 1/16,000 and 1/32,000 for the trough concentration test tubes. The Staphylococcus aureus (ATCC 29213) was also used as the standard test microorganism.

[7] = tested on: bacteria in saliva of healthy volunteers; assay: Inhibition of bacterial growth in the saliva in vivo (Example V); details: in theory, 0.1 ml saliva
Method: Five healthy adult volunteers, three men and two women, were asked to refrain from drinking or eating for two hours after breakfast. At the end of two hours, an aliquot of 0.1 ml of saliva was pipetted from the mouth of each volunteer and spread over the surface of a sheep blood agar plate with a sterile plastic loop. The inoculated blood agar plate was incubated in an aerobic atmosphere containing 5% CO2 as pre-medication control. Then 100 mg, 50 mg, 20 mg, 10 mg and 2 mg of penicillin G potassium dry powder, USP grade, were placed in the right buccal pouch with a spatula between the cheek and the lower gum of each volunteer, respectively. The volunteers were asked to retain the dissolved penicillin powder at the site of medication as concentrated as possible, not to be diluted by saliva from other parts of the mouth for one hour.
At the end of one hour, 0.1 ml of saliva from each volunteer was pipetted from the right buccal pouch where the medication was placed, and inoculated and spread onto the surface of a sheep blood agar plate. The inoculum was spread with a sterile plastic loop.

[8] = tested on: Gram-negative bacilli (Salmonella, Shigella, most Escherichia coli strains, all Proteus mirabilis strains and most Bacteroides strains); details: in vitro; cited from earlier work
[9] = intravenous injection of 500 mg penicillin G; cited from earlier work

Row | SMILES | adverse reactions ([1]; 4 days of penicillin medication) | state of ulcer membrane ([1]; after 4 days of penicillin medication) | initial concentration at the ulcer ([2]; assuming troche is dissolved in 0.1 ml of saliva) | local trough concentration in saliva ([2]; human, in vivo, 60 min) | concentration at 1 h ([2]; human, saliva, 50 mg, 50 mg troche, end of one hour, read-out: local trough concentration in saliva) [µg/mL] | concentration at which bacteria grew to full turbidity [3] [µg/mL] | MIC / concentration inhibiting growth of oral flora in saliva (bacteria in human saliva; in vitro, aerobic) [µg/mL] | known minimum inhibitory concentration (MIC) [4] | effectiveness of treatment [5] | MIC [6] [unit/ml] | bactericidal effect (bacteria in human saliva; 1 mg/ml, one hour's incubation) | MIC (bacteria in human saliva; Homo sapiens, read-out: MIC / concentration inhibiting growth of oral flora in saliva) [µg/mL] | theoretical dose sufficient for initial topical MIC concentration of 2 mg/ml [7] [mg] | cut-off minimum inhibition concentration at which many Gram-negative bacilli fall into sensitive category [8] [µg/mL] | average peak blood level [9]
1 | CC1(C)S[C@@H]2[C@H](NC(=O)Cc3ccccc3)C(=O)N2[C@H]1C(=O)O [penicillin] | no observed adverse reactions of stomatitis or discoloration of the tongue | only remnants of a thin pearly whitish membrane remain, if any | up to 500 mg/ml | about 12,000 Units per 1 ml saliva | ~7500 | ≤ 0.37 | 2000 | 0.25-2 units/mi | ineffective | – | – | – | – | – | –
2 | CC1(C)S[C@@H]2[C@H](NC(=O)Cc3ccccc3)C(=O)N2[C@H]1C(=O)O [penicillin G] | – | – | – | – | – | – | – | – | – | 1 | not "bactericidal" within one hour's incubation time | 2000 (≈ 5.98 mM) | 0.2 | ≤ 740 | 16 mcg/ml and about 16 mcg/ml and about 26 units/mi
